For 6 compounds, IC50 results are on record in patent US10919862B2, “Fused imidazoles as mIDH1 inhibitors” (BAYER PHARMA AKTIENGESELLSCHAFT, priority 2015, dated 2021).

pIC50: −log10 of the molar value.

For one test, the target named is IDH1 R132H enzyme (Homo sapiens (Human), UniProt O75874, R132H). Nature of the test: Mutant IDH1 R132H biochemical assay. The note with it: NADPH consumption, luminescent readout; 1.5 nM enzyme, 1 μM NADPH, 250 μM α-KG, 30 minutes, 32° C. The protocol: Mutant IDH1 R132H Biochemical Assay
mIDH1 catalyzes the NADPH-dependent reduction of alpha-ketoglutarate (α-KG) to (2R)-2-hydroxyglutarate (2-HG). NADPH consumption was measured by luminescent readout.
The biochemical reactions were performed at 32° C. in 384-well plates using a reaction volume of 41 μL and the following assay buffer conditions: 50 mM Tris pH 7.5, 100 mM NaCl, 20 mM MgCl2, 0.05% BSA, 0.01% Brij, 1 μM NADPH, and 250 μM α-KG. The IDH1 R132H enzyme was used in a final concentration of 1.5 nM. Test compounds were used in a concentration range between 0.002 and 10 μM. The final DMSO concentration was 2.4%.
The reaction was incubated for 30 minutes, then 40 μL of detection mix (0.75 μg/ml Luciferase, 0.02 U/ml Oxidoreductase, 4 μg/mL FMN, 2 μL/ml decanal/ethanol, 50 mM Tris pH 7.5, 0.5% Glycerin, 0.01% Tween-20, 0.05% BSA) was added. Luminescence was measured on a luminescent reader (10 seconds measuring time, 1 second integration period, 30% sensitivity). The decrease in luminescence is proportional to mIDH1 activity. IC50 values are determined by interpolation from plots of relative luminescence versus inhibitor concentration.

A further test has as its system LN229 R132H cells. As to the kind of experiment: Mutant IDH1 cellular assay. The test is classed as cell-based. The settings on record: Homo sapiens, LN-229; 2-HG levels in medium of LN229 R132H cells, 24 hours, fluorescence readout. The protocol:
Mutant IDH1 Cellular Assay
Levels of (2R)-2-hydroxyglutarate (2HG) were measured in medium of a cell line with overexpression of mutated isocitrate dehydrogenase (mIDH) protein. mIDH catalyzes the NADPH-dependent reduction of alpha-ketoglutarate to 2-HG. Cells (LN229 R132H, Mohrenz et al., Apoptosis (2013) 18:1416-1425) were grown in DMEM containing 10% FCS. They were harvested by trypsin and seeded into 96-well plates. Cells were incubated overnight at 37° C. in 5% CO2. The next day test compounds were added to each cell well. The final concentration of DMSO was 0.1% and DMSO controls were included. The plates were then placed in an incubator for 24 hours.
2-HG was measured according to Balss et al. (Acta Neuropathol (2012) 124: 883-891). Briefly, perchloric acid was added to each well and the plates were centrifuged. Aliquots are removed and incubated with hydroxyglutarate dehydrogenase (HGDH), diaphorase, NAD+, and resazurin. The conversion of resazurin to resorufin was detected by fluorescence spectroscopy at Ex 540 nm Em 600 nm. The increase in fluorescence is proportional to 2-HG production. IC50 values are determined by interpolation from plots of relative fluorescence vs inhibitor concentration.

IDH1 R132H enzyme, sequence (O75874 whole entry R132H): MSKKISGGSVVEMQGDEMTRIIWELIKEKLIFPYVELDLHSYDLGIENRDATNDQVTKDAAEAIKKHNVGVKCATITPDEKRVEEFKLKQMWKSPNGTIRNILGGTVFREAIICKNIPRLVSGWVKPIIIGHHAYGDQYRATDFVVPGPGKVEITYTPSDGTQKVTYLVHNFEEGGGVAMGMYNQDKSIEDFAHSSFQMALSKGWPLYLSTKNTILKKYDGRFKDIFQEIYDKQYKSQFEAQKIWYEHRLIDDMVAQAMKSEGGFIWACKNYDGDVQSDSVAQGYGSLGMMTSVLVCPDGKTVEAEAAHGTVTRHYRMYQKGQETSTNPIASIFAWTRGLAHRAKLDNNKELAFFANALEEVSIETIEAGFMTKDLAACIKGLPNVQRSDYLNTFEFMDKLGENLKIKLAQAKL

In turn, `C[C@H]1C[C@@H](n2c(Nc3ccc(OC(F)(F)F)cc3)nc3cc(C(=O)O)ccc32)CC(C)(CO)C1` (stereo partly drawn) [Example 2-1, 1-[(1R,5R)-3-(hydroxymethyl)-3,5-dimethylcyclohexyl]-2-{[4-(trifluoromethoxy)-phenyl]amino}-1H-benzimidazole-5-carboxylic acid] had a pIC50 against IDH1 R132H enzyme of 6.30.

The compound `C[C@H]1C[C@@H](n2c(Nc3ccc(OC(F)(F)F)cc3)nc3cc(C(=O)O)ccc32)CC(C)(C)[C@@H]1O` [Example 2-2, 1-[(1R,4R,5S)-4-hydroxy-3,3,5-trimethylcyclohexyl]-2-{[4-(trifluoromethoxy)-phenyl]amino}-1H-benzimidazole-5-carboxylic acid] showed a pIC50 against IDH1 R132H enzyme of 5.32. This pIC50 is 0.98 log units lower than that of the compound before.

As for `CC1(C)C[C@@H](CO)C[C@@H](n2c(Nc3ccc(OC(F)(F)F)cc3)nc3cc(CCC(=O)O)ccc32)C1` [Example 2-3, 3-(1-[(1R,5R)-5-(hydroxymethyl)-3,3-dimethylcyclohexyl]-2-{[4-(trifluoromethoxy)-phenyl]amino}-1H-benzimidazol-5-yl)propanoic acid], the negative-log IC50 (pIC50) against IDH1 R132H enzyme was 6.74; in the test on LN229 R132H cells it was 5.92.

For the compound `C[C@H]1C[C@@H](n2c(Nc3ccc(OC(F)(F)F)cc3)nc3cc(CCC(=O)O)ccc32)CC(C)(CO)C1` (stereo partly drawn) [Example 2-4, 3-(1-[(1R,5R)-3-(hydroxymethyl)-3,5-dimethylcyclohexyl]-2-{[4-(trifluoromethoxy)-phenyl]amino}-1H-benzimidazol-5-yl)propanoic acid], the negative-log IC50 (pIC50) at IDH1 R132H enzyme was 6.57; in the test on LN229 R132H cells, 5.66.

Consider `C[C@H]1C[C@@H](n2c(Nc3ccc(OC(F)(F)F)cc3)nc3cc(CCC(=O)O)ccc32)CC(C)(C)[C@@H]1O` [Example 2-5, 3-(1-[(1R,4R,5S)-4-hydroxy-3,35-trimethylcyclohexyl]-2-{[4-(trifluoromethoxy)-phenyl]amino}-1H-benzimidazol-5-yl)propanoic acid], for which the pIC50 at IDH1 R132H enzyme was 5.39.

As for `CC1(C)C[C@@H](n2c(Nc3ccc(OC(F)(F)F)cc3)nc3cnccc32)C[C@@](C)(CO)C1` [Example 2-6, [(1 S,5R)-1,3,3-trimethyl-5-(2-{[4-(trifluoromethoxy)phenyl]amino}-1H-imidazo-[4,5-c]pyridin-1-yl)cyclohexyl]methanol], the pIC50 at IDH1 R132H enzyme was 7.52; in the test with LN229 R132H cells, 5.80.

As usually defined, the pIC50 is the negative decadic logarithm of the IC50, by convention in mol/L. Read a high pIC50 as a small IC50.
